Laboratory results: patent publication EP2698385A1, “Detection of synthetic cannabinoids” (priority 2012, dated 2014)
Read-outs that look alike come from different tables or passages of the source.

Experiments:
Assay type in all cases: binding, sheep
[1] = test system: Antibody to Immunogen II; assay: Competitive ELISA (Example 36), antibody RS1833B12, tracer ESC4555/LK959, standard JWH-018
In short: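 Sheep antiserum IgG coated on plates overnight at 4°C; standard or cross-reactant competes with hapten-HRP conjugate in Tris buffer pH 7.2 for 1 h at 25°C.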

[2] = test system: Antibody to Immunogen IV
[3] = test system: Antibody to Immunogen VIII
[4] = test system: Antibody to Immunogen VII; details: Cross-reactants at 100 ng/ml; Antibody to Immunogen VII
[5] = Cross-reactants at 100 ng/ml, Antibody to Immunogen II
[6] = Cross-reactants at 100 ng/ml, Antibody to Immunogen IV
[7] = Cross-reactants at 100 ng/ml, Antibody to Immunogen VIII

## O=C(c1cccc2ccccc12)c1c[nH]c2ccccc12 [3-(1-naphthoyl)-1H-Indole, 3-(1-naphthoyl)-1H-indole]
[1]; [5]
  %B/B0: 99.18%
[2]; [6]
  %B/B0: 95.55%
[3]; [7]
  %B/B0: 90.49%
[4]
  %B/B0: 80.08%

## CCCCCn1cc(C(=O)c2cccc3ccccc23)c2c(O)cccc21 [JWH-018 4-hydroxyindole metabolite]
[1]; [5]
  %B/B0: 29.49%
[2]; [6]
  %B/B0: 20.42%
[3]; [7]
  %B/B0: 16.72%
[4]
  %B/B0: 89.96%

## CCCCCn1cc(C(=O)c2cccc3ccccc23)c2cc(O)ccc21 [JWH-018 5-hydroxyindole metabolite]
[1]; [5]
  %B/B0: 12.14%
[2]; [6]
  %B/B0: 78.56%
[3]; [7]
  %B/B0: 87.67%
[4]
  %B/B0: 85.76%

## CCCCCn1cc(C(=O)c2cccc3ccccc23)c2ccc(O)cc21 [JWH-018 6-hydroxyindole metabolite]
[1]; [5]
  %B/B0: 24.39%
[2]; [6]
  %B/B0: 51.00%
[3]; [7]
  %B/B0: 89.86%
[4]
  %B/B0: 68.17%

## O=C(c1cccc2ccccc12)c1cn(CCCCCO)c2ccccc12 [JWH-018 N-(5-hydroxypentyl) metabolite]
[1]; [5]
  %B/B0: 53.38%
[2]; [6]
  %B/B0: 78.42%
[3]; [7]
  %B/B0: 57.37%
[4]
  %B/B0: 53.32%

## O=C(O)CCCCn1cc(C(=O)c2cccc3ccccc23)c2ccccc21 [JWH-018 N-pentanoic acid metabolite]
[1]; [5]
  %B/B0: 85.61%
[2]; [6]
  %B/B0: 99.89%
[3]; [7]
  %B/B0: 100.31%
[4]
  %B/B0: 53.02%

## CCCCCn1cc(C(=O)c2cccc3ccccc23)c2ccccc21 [JWH-018]
[1]; [5]
  %B/B0: 9.29%
[1]; JWH-018 standard 0.625 ng/ml
  %B/B0: 68%
[1]; JWH-018 standard 1.25 ng/ml
  %B/B0: 53%
[1]; JWH-018 standard 2.5 ng/ml
  %B/B0: 34%
[1]; JWH-018 standard 5 ng/ml
  %B/B0: 25%
[1]; JWH-018 standard 10 ng/ml
  %B/B0: 17%
[1]; JWH-018 standard 20 ng/ml
  %B/B0: 13%
[1]; JWH-018 standard 40 ng/ml
  %B/B0: 10%
[1]; Table 3a standard curve, standard concentration which produces 50% B/B0
  IC50: 1.333 ng/mL
[2]; [6]
  %B/B0: 6.80%
[2]; JWH-018 standard 1.25 ng/ml
  %B/B0: 87%
[2]; JWH-018 standard 2.5 ng/ml
  %B/B0: 68%
[2]; JWH-018 standard 5 ng/ml
  %B/B0: 42%
[2]; JWH-018 standard 10 ng/ml
  %B/B0: 26%
[2]; JWH-018 standard 20 ng/ml
  %B/B0: 16%
[2]; JWH-018 standard 40 ng/ml
  %B/B0: 10%
[2]; JWH-018 standard 80 ng/ml
  %B/B0: 7%
[2]; Table 3b standard curve, standard concentration which produces 50% B/B0
  IC50: 4.133 ng/mL
[3]; [7]
  %B/B0: 17.66%
[3]; JWH-018 standard 1 ng/ml
  %B/B0: 79%
[3]; JWH-018 standard 3 ng/ml
  %B/B0: 63%
[3]; JWH-018 standard 5 ng/ml
  %B/B0: 51%
[3]; JWH-018 standard 10 ng/ml
  %B/B0: 40%
[3]; JWH-018 standard 20 ng/ml
  %B/B0: 29%
[3]; JWH-018 standard 40 ng/ml
  %B/B0: 22%
[3]; JWH-018 standard 80 ng/ml
  %B/B0: 16%
[3]; Table 3c standard curve, standard concentration which produces 50% B/B0
  IC50: 5.230 ng/mL
[4]
  %B/B0: 67.66%

## CCCCn1cc(C(=O)c2cccc3ccccc23)c2ccccc21 [JWH-073]
[1]; [5]
  %B/B0: 15.24%
[2]; [6]
  %B/B0: 13.63%
[3]; [7]
  %B/B0: 25.50%
[4]
  %B/B0: 58.34%

## CCCCCn1cc(C(=O)c2ccc(Cl)c3ccccc23)c2ccccc21 [JWH-398]
[1]; [5]
  %B/B0: 30.31%
[2]; [6]
  %B/B0: 6.00%
[3]; [7]
  %B/B0: 18.66%
[4]
  %B/B0: 94.47%

## O=C(c1cccc2ccccc12)c1cn(CCN2CCOCC2)c2ccccc12 [WIN 55,225 (other name JWH-200), JWH-200]
[1]; [5]
  %B/B0: 54.02%
[2]; [6]
  %B/B0: 77.08%
[3]; [7]
  %B/B0: 98.81%
[4]
  %B/B0: 42.85%
